How the values were obtained:
Format in all cases: in vivo
[1] = tested on: large crabgrass (Digitaria sanguinalis); assay: Test C pre-/postemergence: large crabgrass
Procedure, shortened: (§1)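 Preemergence on seeds in loam/sand, postemergence on 2–18 cm (1–4-leaf) plants in peat-based medium; compounds in non-phytotoxic solvent with surfactant. After 13–15 days in greenhouse, visual rating versus controls, 0 (no effect) to 100 (complete control).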

[2] = tested on: blackgrass (Alopecurus myosuroides); assay: Test C pre-/postemergence: blackgrass
Procedure, shortened: as §1

[3] = tested on: pigweed (Amaranthus retroflexus); assay: Test C pre-/postemergence: pigweed
Procedure, shortened: as §1

[4] = tested on: johnsongrass (Sorghum halepense); assay: Test C pre-/postemergence: johnsongrass
Procedure, shortened: as §1

[5] = tested on: velvetleaf (Abutilon theophrasti); assay: Test A pre-/postemergence: velvetleaf; conditions: for Velvetleaf plant response rating: visual rating on 0 to 100 scale (0 no effect, 100 complete control), approximately ten days
Procedure, shortened: (§2)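 Pre: directed soil spray after planting in loam + sand. Post: same formulation (non-phytotoxic solvent + surfactant) on 1–2-leaf plants, 2–10 cm. Greenhouse ~10 d; visual injury 0–100 vs untreated.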

[6] = tested on: galium (catchweed bedstraw, Galium aparine); assay: Test C pre-/postemergence: galium
Procedure, shortened: as §1

corn (Zea mays) = assay: Test C pre-/postemergence: corn
Procedure, shortened: as §1

[7] = tested on: ragweed (common ragweed, Ambrosia elation); assay: Test C pre-/postemergence: ragweed
Procedure, shortened: as §1

[8] = tested on: morningglory (Ipomoea spp.); assay: Test A pre-/postemergence: morningglory; conditions: for Morningglory plant response rating: visual rating on 0 to 100 scale (0 no effect, 100 complete control), approximately ten days
Procedure, shortened: as §2

[9] = tested on: velvetleaf (Abutilon theophrasti); assay: Test C pre-/postemergence: velvetleaf
Procedure, shortened: as §1

wild oat (Avena fatua) = assay: Test C pre-/postemergence: wild oat
Procedure, shortened: as §1

kochia (Kochia scoparia) = assay: Test C pre-/postemergence: kochia
Procedure, shortened: as §1

[10] = Postemergence, 31 g ai/ha, scale 0 to 100 (0 no effect, 100 complete control)
[11] = Postemergence, 62 g ai/ha, scale 0 to 100 (0 no effect, 100 complete control)
[12] = Postemergence, 125 g ai/ha, scale 0 to 100, 0 no effect, 100 complete control
[13] = Postemergence, 250 g ai/ha, scale 0 to 100
[14] = Preemergence, 31 g ai/ha, scale of 0 to 100, 0 is no effect, 100 is complete control
[15] = Preemergence, 62 g ai/ha, scale of 0 to 100, 0 is no effect, 100 is complete control
[16] = Preemergence, 125 g ai/ha, scale 0 to 100, 0 no effect, 100 complete control
[17] = Preemergence, 250 g ai/ha, scale 0 to 100, 0 no effect, 100 complete control
[18] = Postemergence, 125 g ai/ha, 0 to 100 scale, 0 is no effect, 100 is complete control
[19] = Preemergence, 125 g ai/ha, 0 to 100 scale where 0 is no effect and 100 is complete control
[20] = Preemergence, 500 g ai/ha, 0 to 100 scale (0 no effect, 100 complete control)

Fc1ccc(-n2nc(Cc3ccnc(C(F)(F)F)c3)c(OCC(F)(F)F)n2)cc1 [Compound 142]
Plant response rating, Crabgrass, Large [1, 10]: 65 | Plant response rating, Crabgrass, Large [1, 11]: 80 | Plant response rating, Crabgrass, Large [1, 12]: 95 | Plant response rating, Crabgrass, Large [1, 13]: 95 | Plant response rating, Crabgrass, Large [1, 14]: 100 | Plant response rating, Crabgrass, Large [1, 15]: 100 | Plant response rating, Crabgrass, Large [1, 16]: 100 | Plant response rating, Crabgrass, Large [1, 17]: 100 | Plant response rating, Blackgrass [2, 10]: 55 | Plant response rating, Blackgrass [2, 11]: 60 | Plant response rating, Blackgrass [2, 12]: 80 | Plant response rating, Blackgrass [2, 13]: 90 | Plant response rating, Blackgrass [2, 14]: 90 | Plant response rating, Blackgrass [2, 15]: 90 | Plant response rating, Blackgrass [2, 16]: 90 | Plant response rating, Blackgrass [2, 17]: 90 | Plant response rating, Pigweed [3, 10]: 98 | Plant response rating, Pigweed [3, 11]: 98 | Plant response rating, Pigweed [3, 12]: 98 | Plant response rating, Pigweed [3, 13]: 98 | Plant response rating, Pigweed [3, 14]: 98 | Plant response rating, Pigweed [3, 15]: 98 | Plant response rating, Pigweed [3, 16]: 100 | Plant response rating, Pigweed [3, 17]: 100 | Plant response rating, Johnsongrass [4, 10]: 55 | Plant response rating, Johnsongrass [4, 11]: 70 | Plant response rating, Johnsongrass [4, 12]: 80 | Plant response rating, Johnsongrass [4, 13]: 80 | Plant response rating, Johnsongrass [4, 14]: 90 | Plant response rating, Johnsongrass [4, 15]: 98 | Plant response rating, Johnsongrass [4, 16]: 100 | Plant response rating, Johnsongrass [4, 17]: 100 | Plant response rating, Velvetleaf [5, 18]: 100 | Velvetleaf plant response rating ([5]; Postemergence, 500 g ai/ha): 100 | Plant response rating, Velvetleaf [5, 19]: 60 | Plant response rating, Velvetleaf [5, 20]: 90 | Plant response rating, Galium [6, 10]: 80 | Plant response rating, Galium [6, 11]: 80 | Plant response rating, Galium [6, 12]: 90 | Plant response rating, Galium [6, 13]: 90 | Plant response rating, Galium [6, 14]: 60 | Plant response rating, Galium [6, 15]: 80 | Plant response rating, Galium [6, 16]: 100 | Plant response rating, Galium [6, 17]: 100 | Plant response rating, Corn (corn (Zea mays); [10]): 30 | Plant response rating, Corn (corn (Zea mays); [11]): 35 | Plant response rating, Corn (corn (Zea mays); [12]): 35 | Plant response rating, Corn (corn (Zea mays); [13]): 45 | Plant response rating, Corn (corn (Zea mays); [14]): 0 | Plant response rating, Corn (corn (Zea mays); [15]): 5 | Plant response rating, Corn (corn (Zea mays); [16]): 20 | Plant response rating, Corn (corn (Zea mays); [17]): 30 | Plant response rating, Ragweed [7, 10]: 65 | Plant response rating, Ragweed [7, 11]: 70 | Plant response rating, Ragweed [7, 12]: 75 | Plant response rating, Ragweed [7, 13]: 75 | Plant response rating, Ragweed [7, 14]: 40 | Plant response rating, Ragweed [7, 15]: 40 | Plant response rating, Ragweed [7, 16]: 70 | Plant response rating, Ragweed [7, 17]: 80 | Plant response rating, Morningglory [8, 18]: 100 | Morningglory plant response rating ([8]; Postemergence, 500 g ai/ha): 100 | Plant response rating, Morningglory [8, 19]: 50 | Plant response rating, Morningglory [8, 20]: 80 | Plant response rating, Velvetleaf [9, 10]: 30 | Plant response rating, Velvetleaf [9, 11]: 50 | Plant response rating, Velvetleaf [9, 12]: 55 | Plant response rating, Velvetleaf [9, 13]: 75 | Plant response rating, Velvetleaf [9, 14]: 35 | Plant response rating, Velvetleaf [9, 15]: 75 | Plant response rating, Velvetleaf [9, 16]: 80 | Plant response rating, Velvetleaf [9, 17]: 100 | Plant response rating, Oat, Wild (wild oat (Avena fatua); [10]): 35 | Plant response rating, Oat, Wild (wild oat (Avena fatua); [11]): 45 | Plant response rating, Oat, Wild (wild oat (Avena fatua); [12]): 70 | Plant response rating, Oat, Wild (wild oat (Avena fatua); [13]): 70 | Plant response rating, Oat, Wild (wild oat (Avena fatua); [14]): 85 | Plant response rating, Oat, Wild (wild oat (Avena fatua); [15]): 85 | Plant response rating, Oat, Wild (wild oat (Avena fatua); [16]): 85 | Plant response rating, Oat, Wild (wild oat (Avena fatua); [17]): 90 | Plant response rating, Kochia (kochia (Kochia scoparia); [10]): 80 | Plant response rating, Kochia (kochia (Kochia scoparia); [11]): 90 | Plant response rating, Kochia (kochia (Kochia scoparia); [12]): 95 | Plant response rating, Kochia (kochia (Kochia scoparia); [13]): 95 | Plant response rating, Kochia (kochia (Kochia scoparia); [14]): 55 | Plant response rating, Kochia (kochia (Kochia scoparia); [15]): 80 | Plant response rating, Kochia (kochia (Kochia scoparia); [16]): 98 | Plant response rating, Kochia (kochia (Kochia scoparia); [17]): 100

Cc1nn(-c2ccc(F)c(F)c2)nc1Oc1ccnc(C(F)(F)F)c1 [Compound 145]
Plant response rating, Crabgrass, Large [1, 10]: 25 | Plant response rating, Crabgrass, Large [1, 11]: 50 | Plant response rating, Crabgrass, Large [1, 12]: 85 | Plant response rating, Crabgrass, Large [1, 13]: 95 | Plant response rating, Crabgrass, Large [1, 14]: 98 | Plant response rating, Crabgrass, Large [1, 15]: 100 | Plant response rating, Crabgrass, Large [1, 16]: 100 | Plant response rating, Crabgrass, Large [1, 17]: 100 | Plant response rating, Blackgrass [2, 10]: 10 | Plant response rating, Blackgrass [2, 11]: 60 | Plant response rating, Blackgrass [2, 12]: 70 | Plant response rating, Blackgrass [2, 13]: 70 | Plant response rating, Blackgrass [2, 14]: 85 | Plant response rating, Blackgrass [2, 15]: 90 | Plant response rating, Blackgrass [2, 16]: 90 | Plant response rating, Blackgrass [2, 17]: 90 | Plant response rating, Pigweed [3, 10]: 85 | Plant response rating, Pigweed [3, 11]: 98 | Plant response rating, Pigweed [3, 12]: 98 | Plant response rating, Pigweed [3, 13]: 98 | Plant response rating, Pigweed [3, 14]: 90 | Plant response rating, Pigweed [3, 15]: 98 | Plant response rating, Pigweed [3, 16]: 98 | Plant response rating, Pigweed [3, 17]: 100 | Plant response rating, Johnsongrass [4, 10]: 10 | Plant response rating, Johnsongrass [4, 11]: 20 | Plant response rating, Johnsongrass [4, 12]: 70 | Plant response rating, Johnsongrass [4, 13]: 75 | Plant response rating, Johnsongrass [4, 14]: 0 | Plant response rating, Johnsongrass [4, 15]: 35 | Plant response rating, Johnsongrass [4, 16]: 100 | Plant response rating, Johnsongrass [4, 17]: 100 | Plant response rating, Velvetleaf [5, 18]: 100 | Velvetleaf plant response rating ([5]; Postemergence, 500 g ai/ha): 100 | Plant response rating, Velvetleaf [5, 19]: 50 | Plant response rating, Velvetleaf [5, 20]: 80 | Plant response rating, Galium [6, 10]: 80 | Plant response rating, Galium [6, 11]: 80 | Plant response rating, Galium [6, 12]: 90 | Plant response rating, Galium [6, 13]: 95 | Plant response rating, Galium [6, 14]: 60 | Plant response rating, Galium [6, 15]: 98 | Plant response rating, Galium [6, 16]: 100 | Plant response rating, Galium [6, 17]: 100 | Plant response rating, Corn (corn (Zea mays); [10]): 35 | Plant response rating, Corn (corn (Zea mays); [11]): 45 | Plant response rating, Corn (corn (Zea mays); [13]): 50 | Plant response rating, Corn (corn (Zea mays); [14]): 0 | Plant response rating, Corn (corn (Zea mays); [15]): 10 | Plant response rating, Corn (corn (Zea mays); [16]): 25 | Plant response rating, Corn (corn (Zea mays); [17]): 60 | Plant response rating, Ragweed [7, 10]: 60 | Plant response rating, Ragweed [7, 12]: 70 | Plant response rating, Ragweed [7, 13]: 70 | Plant response rating, Ragweed [7, 14]: 0 | Plant response rating, Ragweed [7, 15]: 10 | Plant response rating, Ragweed [7, 16]: 40 | Plant response rating, Ragweed [7, 17]: 55 | Plant response rating, Morningglory [8, 18]: 100 | Morningglory plant response rating ([8]; Postemergence, 500 g ai/ha): 100 | Plant response rating, Morningglory [8, 19]: 10 | Plant response rating, Morningglory [8, 20]: 60 | Plant response rating, Velvetleaf [9, 10]: 35 | Plant response rating, Velvetleaf [9, 11]: 35 | Plant response rating, Velvetleaf [9, 12]: 50 | Plant response rating, Velvetleaf [9, 13]: 60 | Plant response rating, Velvetleaf [9, 14]: 0 | Plant response rating, Velvetleaf [9, 15]: 10 | Plant response rating, Velvetleaf [9, 16]: 75 | Plant response rating, Velvetleaf [9, 17]: 85 | Plant response rating, Oat, Wild (wild oat (Avena fatua); [10]): 20 | Plant response rating, Oat, Wild (wild oat (Avena fatua); [11]): 40 | Plant response rating, Oat, Wild (wild oat (Avena fatua); [12]): 60 | Plant response rating, Oat, Wild (wild oat (Avena fatua); [13]): 80 | Plant response rating, Oat, Wild (wild oat (Avena fatua); [14]): 45 | Plant response rating, Oat, Wild (wild oat (Avena fatua); [15]): 70 | Plant response rating, Oat, Wild (wild oat (Avena fatua); [16]): 90 | Plant response rating, Oat, Wild (wild oat (Avena fatua); [17]): 90 | Plant response rating, Kochia (kochia (Kochia scoparia); [10]): 85 | Plant response rating, Kochia (kochia (Kochia scoparia); [11]): 85 | Plant response rating, Kochia (kochia (Kochia scoparia); [12]): 90 | Plant response rating, Kochia (kochia (Kochia scoparia); [13]): 95 | Plant response rating, Kochia (kochia (Kochia scoparia); [14]): 50 | Plant response rating, Kochia (kochia (Kochia scoparia); [15]): 90 | Plant response rating, Kochia (kochia (Kochia scoparia); [16]): 98 | Plant response rating, Kochia (kochia (Kochia scoparia); [17]): 98

Source: patent US9302999B2, “Substituted triazoles as herbicides” (E. I. DU PONT DE NEMOURS AND COMPANY, priority 2012, dated 2016)
